Reference: US20080318970A1, “Treatment of Infectious Diseases” (priority 2004, published 2008)
Read-outs that look alike come from different tables or passages of the source.

How the values were obtained:
[1] = tested on: Fluconazole Resistant Candida albicans; experiment: Checkerboard combination study on fungals, broth microdilution (NCCLS M27-A); format: cell-based; settings: Candida albicans
Description: The synergistic effect of Trans-clopenthixol was studied by checkerboard combination studies exposing cells to 0-256 μg/ml anti-infective agent in the absence or presence of trans-clopenthixol (0 to 8 μg/ml in two-fold dilutions). Each experiment was repeated in tripleduplicate. MIC values represent the mean values of two separate experiments.
Clinical Isolate of a Fluconazole Resistant Candida albicans from a Patient with candidemia.
The isolates were subcultured for 24 h on Sabouraud glucose agar before susceptibility testing.
Broth microdilution tests were performed according to NCCLS document M27-A (Ref: National Committee for Clinical Laboratory Standards. (1997). Reference Method for Broth Dilution Antifungal Susceptibility Testing of Yeasts: Approved Standard M27-A. NCCLS, Wayne, Pa.)
Microtitre plates were read spectrophotometrically at 530 nm, after mixing the wells by pipetting to resuspend yeast sediments.
The Fractional Inhibitory Concentration (FIC) was calculated for the anti-infective agent alone and in combination with trans-clopenthixol. The following formulae were used to calculate the FIC index:
(§1) FIC=FICchemosensitising compound+FICanti-infective agent
(§2) FICchemosensitising compound=(MICchemosensitising compound+anti-infective agent)/(MICchemosensitising compound)
FICanti-infective agent=(MICanti-infective agent+chemosensitising compound/(MICanti-infective agent)
(§3) Synergy was defined as a FIC index of <0.5.

[2] = tested on: E. coli, LN 3164; experiment: Effect of chemosensitising compounds on DR (DR ratio) with ciprofloxacin, microtiter assay; format: cell-based; settings: for DR ratio: MIC ciprofloxacin alone / MIC ciprofloxacin + chemosensitising compound at ¼ of its MIC
Description: The effects of the chemosensitising compounds on DR were studied by the microtiter assay described above by exposing cells to 0-64 μg/ml anti-infective drug in the absence or presence of chemosensitising compound. Each experiment was repeated in tripleduplicate. MIC values represent the mean values of two separate experiments.
A log phase culture of bacteria was diluted with fresh pre-warmed medium and adjusted to a defined OD at 600 nm in order to give a final concentration of 1×10^4 bacteria/ml medium in each well. […] Anti-infective agent was added to the bacterial culture in the wells in two-fold dilutions in order to give final concentrations ranging from 0 to 64 μg/ml. Trays were incubated at 37° C. for 16 h. The DR ratio was defined as the ratio between the MIC value for anti-infective agent alone divided by the MIC for the anti-infective agent in the presence of the chemosensitising compound. This ratio represents the increase in apparent potency of the anti-infective agent caused by the chemosensitising compound, and may be expressed as
DR ratio=(MICanti-infective agent)/(MICanti-infective agent+chemosensitising compound)

[3] = tested on: E. coli, LN 3164; experiment: MIC susceptibility test, microdilution broth method (NCCLS), chemosensitising compound alone; format: cell-based; settings: 16 h
Description: Bacteria were sub-cultured on Mueller-Hinton agar plates and incubated over night at 37° C. Pre-warmed Mueller-Hinton broth was inoculated with colonies from the plate and incubated for approximately three hours to achieve a log phase culture. The log phase culture of bacteria was diluted with fresh pre-warmed medium and adjusted to a defined Optical Density (OD) at 600 nm in order to give a final assay concentration of 1×10^4 bacteria/ml medium.
Cell growth was tested using the MIC susceptibility tests by use of the microdilution broth method in accordance to the NCCLS Guidelines (NCCLS Guidelines, Methods for Dilution Antimicrobial Susceptibility Tests for Bacteria That Grow Aerobically; Approved Standard, Sixth Edition, Volume 23; Number 2). A 100% Mueller-Hinton broth and a bacterial concentration of 1×10^4/ml were used.
A log phase culture of bacteria was diluted with fresh pre-warmed medium and adjusted to a defined OD at 600 nm in order to give a final concentration of 1×10^4 bacteria/ml medium in each well. Each chemosensitising compound was added to the bacterial culture in the wells in two-fold dilutions in order to give final concentrations ranging from 8 to 500 μg/ml. Trays were incubated at 37° C. for 16 h. Minimal Inhibitory Concentration, (MIC) is defined as the lowest inhibitory concentration showing no visible growth according to the NCCLS Guidelines.

[4] = tested on: E. faecalis F86; experiment: Checkerboard combination study (FIC index); format: cell-based, Enterococcus faecalis; settings: anti-infective agent Dicloxacillin; isolate susceptible (S)
Description: Enterococcus faecalis, F86. Susceptible clinical isolate. No development of resistance.
(§4) The synergistic effect was studied by checkerboard combination studies exposing cells to 0-64 μg/ml anti-infective agent in the absence or presence of trans-flupenthixol, cis-flupenthixol or trans-clopenthixol. Each experiment was repeated in tripleduplicate. MIC values represent the mean values of two separate experiments,
(§5) A log phase culture of bacteria was diluted with fresh pre-warmed medium and adjusted to a defined OD at 600 nm in order to give a final concentration of 1×10^4 bacteria/ml medium in each well. Each chemosensitising compound was added to the bacterial culture in the wells in two-fold dilutions in order to give final concentrations ranging from 0 to 8 μg/ml. Anti-infective agent was added to the bacterial culture in the wells in two-fold dilutions in order to give final concentrations ranging from 0 to 64 μg/ml Trays were incubated at 37° C. for 16 h. Wells were assessed visually for growth. The Fractional Inhibitory Concentration (FIC) was calculated for each anti-infective agent alone and in combination with trans-flupenthixol, cis-flupenthixol or trans-clopenthixol. The following formulae were used to calculate the FIC index:
as §1, §2
(§6) FICanti-infective agent=(MICanti-infective agent+chemosensitising compound/(MICanti-Infective agent)
as §3

[5] = tested on: P. aeruginosa 432b; experiment: Checkerboard combination study (FIC index); format: cell-based; settings: isolate resistant (R)
Description: P. aeruginosa 432b. Clinical multidrug resistant isolate. Resistant to tetracycline, beta-lactams, fluoroquinolones, and aminoglycosides. Beta-lactamase producing, changes in Penicillin Binding Proteins and changes in Outer Membrane Proteins.
as §4, §5, §1, §2, §6, §3

[6] = tested on: S. aureus O11; experiment: Checkerboard combination study (FIC index); format: cell-based, Staphylococcus aureus; settings: anti-infective agent Dicloxacillin; isolate susceptible (S)
Description: Staphylococcus aureus O11. Clinical isolate resistant to penicillin. Susceptible to methicillin, tetracycline, beta-lactams, fluoroquinolones, chloramphenicol and aminoglycosides.
as §4, §5, §1, §2, §6, §3

[7] = tested on: E. coli LN 3164; experiment: Checkerboard combination study (FIC index); format: cell-based; settings: MDR isolate
Description: E. coli, LN 3164. Acr AB-ToIC MDR in vitro-selected mutant. Resistant to tetracycline, beta-lactams, fluoroquinolones, chloramphenicol and aminoglycosides.
as §4, §5, §1, §2, §6, §3

[8] = tested on: S. aureus E45; experiment: Checkerboard combination study (FIC index); format: cell-based, Staphylococcus aureus; settings: isolate resistant (R)
Description: Staphylococcus aureus E45 MRSA. Clinical isolate. Resistant to methicillin. Susceptible to teicoplanin chloramphenicol, fosfomycin, netilmicin and vancomycin.
as §4, §5, §1, §2, §6, §3

[9] = tested on: E. faecalis F84; experiment: Checkerboard combination study (FIC index); format: cell-based, Enterococcus faecalis; settings: for FIC index: MDR isolate
Description: Enterococcus faecalis, F84. A multidrug resistant clinical isolate.
as §4
as §5, with “Each chemosensitising compound was added to the bacterial culture in the wells in two-fold dilutions in order to give final concentrations ranging from 0 to 8 μg/ml.” left out
as §1, §2, §6, §3

[10] = tested on: E. coli 331ME; experiment: Checkerboard combination study (FIC index); format: cell-based; settings: MDR isolate
Description: E. coli 331 ME. In vivo-selected multidrug resistant clinical isolates of E. coli. Strains were isolated from a patient with severe cystitis/urosepsis. Resistant to tetracycline, beta-lactams, fluoroquinolones, chloramphenicol and aminoglycosides.
as §4, §5, §1, §2, §6, §3

[11] = clinical trial versus placebo, Johnstone et al.; cited from earlier work
[12] = tested on: non-resistant mouse pathogen isolate of Streptococcus pneumoniae; settings: Kristiansen et al. 1998; cited from earlier work
[13] = anti-infective agent Ciprofloxacin
[14] = anti-infective agent Gentamicin
[15] = anti-infective agent Piperacillin
[16] = anti-infective agent Dicloxacillin
[17] = anti-infective agent Fucidic acid

OC(Cn1cncn1)(Cn1cncn1)c1ccc(F)cc1F [Fluconazole, reference compound]
MIC [1]: 128 µg/mL

CN(C)CCCN1c2ccc(O)cc2Sc2ccc(Cl)cc21 [7-hydroxy-chlorpromazine, 7-hydroxychlorpromazine]
DR ratio ([2]; E. coli LN 3164): 1 | MIC ([3]; 37° C.): 125 µg/mL

CN1CCN(CCCN2c3ccccc3Sc3ccc(C(F)(F)F)cc32)CC1 [Trifluoperazine, trifluoperazine]
DR ratio ([2]; E. coli LN 3164): 16 | MIC ([3]; 37° C.): 16 µg/mL

CN(C)CCCN1c2ccccc2Sc2ccc(Cl)cc21 [chlorpromazine]
sensitised drug resistant cells to ciprofloxacin by ([2]; E. coli LN 3164, ciprofloxacin): 220% | DR ratio ([2]; E. coli LN 3164): 4 | increase in anti-DR activity, tertiary versus secondary amine ([2]; chlorpromazine versus desmethylchlorpromazine): 1.6 fold | MIC ([3]; 37° C.): 32 µg/mL

OCCN1CCN(CC/C=C2\c3ccccc3Sc3ccc(C(F)(F)F)cc32)CC1 [trans-flupenthixol]
FIC index [4]: 0.50 | DR ratio ([2]; E. coli LN 3164): 64 | FIC index [5, 13]: 0.03 | FIC index [5, 14]: 0.06 | FIC index [5, 15]: 0.13 | FIC index [6]: 0.50 | FIC index [7, 13]: 0.13 | FIC index [7, 14]: 0.063 | FIC index [7, 15]: 0.13 | FIC index [8, 16]: 0.13 | FIC index [8, 17]: 0.13 | FIC index [9, 16]: 0.06 | FIC index ([9]; anti-infective agent Vanomycin): 0.13 | FIC index [10, 13]: 0.006 | FIC index [10, 14]: 0.02 | FIC index [10, 15]: 0.13 | MIC ([3]; 37° C.): 32 µg/mL | anti-psychotic effect (in words) [11]: no activity as an anti-psychotic

CN(C)CCCN1c2ccccc2[S+]([O-])c2ccc(Cl)cc21 (centres unmarked) [chlorpromazine sulfoxide]
activity against drug resistance (in words) ([2]; E. coli LN 3164, ciprofloxacin): same activity against drug resistance as did chlorpromazine

CN(C)CCCN1c2cc(Cl)ccc2Sc2cc(O)c(O)cc21 [7,8-dihydroxy-chlorpromazine, 7,8-dihydroxychlorpromazine]
DR ratio ([2]; E. coli LN 3164): 0.5 | MIC ([3]; 37° C.): 125 µg/mL

OCCN1CCN(CC/C=C2/c3ccccc3Sc3ccc(C(F)(F)F)cc32)CC1 [cis-flupenthixol, reference compound]
FIC index [4]: 0.50 | DR ratio ([2]; E. coli LN 3164): 32 | FIC index [5, 13]: 0.06 | FIC index [5, 14]: 0.13 | FIC index [5, 15]: 0.25 | FIC index [6]: 0.50 | FIC index [7, 13]: 0.25 | FIC index [7, 14]: 0.25 | FIC index [7, 15]: 0.25 | FIC index [8, 16]: 0.25 | FIC index [8, 17]: 0.26 | FIC index [9, 16]: 0.13 | FIC index ([9]; anti-infective agent Vanomycin): 0.25 | FIC index [10, 13]: 0.013 | FIC index [10, 14]: 0.06 | FIC index [10, 15]: 0.25 | MIC ([3]; 37° C.): 32 µg/mL | anti-psychotic effect (in words) [11]: potent neuroleptic

CN1CCN(CCCN2c3ccccc3Sc3ccc(Cl)cc32)CC1 [Prochlorperazine, prochlorperazine]
DR ratio ([2]; E. coli LN 3164): 4 | MIC ([3]; 37° C.): 64 µg/mL

CN(C)CCN1c2ccccc2Sc2ccc(Cl)cc21 [2-chloro-10-(2-dimethylaminoethyl)phenothiazine]
DR ratio ([2]; E. coli LN 3164): 2 | MIC ([3]; Escherichia coli, LN3164, 37° C., read-out: MIC): 64 µg/mL

CN[C@H](CC(C)C)C(=O)N[C@H]1C(=O)N[C@@H](CC(N)=O)C(=O)N[C@H]2C(=O)N[C@H]3C(=O)N[C@H](C(=O)N[C@H](C(=O)O)c4cc(O)cc(O)c4-c4cc3ccc4O)[C@H](O)c3ccc(c(Cl)c3)Oc3cc2cc(c3O[C@@H]2O[C@H](CO)[C@@H](O)[C@H](O)[C@H]2O[C@H]2C[C@](C)(N)[C@H](O)[C@H](C)O2)Oc2ccc(cc2Cl)[C@H]1O [vancomycin, reference compound]
MIC value ([9]; E. faecalis F84 cultivated in the presence of vancomycin at 4 μg/ml): 4 μ/ml

CN(C)CCCN1c2ccccc2Sc2ccccc21 [Promazine, promazine]
sensitised drug resistant cells to ciprofloxacin by ([2]; E. coli LN 3164, ciprofloxacin): 100% | DR ratio ([2]; E. coli LN 3164): 2 | MIC ([3]; 37° C.): 64 µg/mL

CSc1ccc2c(c1)N(CCCN(C)C)c1ccccc1S2 [Thiomethylpromazine, thiomethylpromazine]
DR ratio ([2]; E. coli LN 3164): 4 | MIC ([3]; 37° C.): 32 µg/mL

CN(C)CCCN1c2ccccc2Sc2ccc(C(F)(F)F)cc21 [Trifluopromazine, trifluopromazine]
DR ratio ([2]; E. coli LN 3164): 8 | MIC ([3]; 37° C.): 32 µg/mL

CNCCCN1c2ccccc2Sc2ccc(Cl)cc21 [Desmethyl-chlorpromazine, desmethylchlorpromazine]
DR ratio ([2]; E. coli LN 3164): 2 | MIC ([3]; 37° C.): 32 µg/mL

CN(C)CCCN1c2ccccc2Sc2cccc(Cl)c21 [1-chlorpromazine]
DR ratio ([2]; E. coli LN 3164): 2 | MIC ([3]; 37° C.): 64 µg/mL

OCCN1CCN(CCCN2c3ccccc3Sc3ccc(Cl)cc32)CC1 [Perphenazine, perphenazine]
DR ratio ([2]; E. coli LN 3164): 4 | MIC ([3]; 37° C.): 125 µg/mL

OCCN1CCN(CCCN2c3ccccc3Sc3ccc(C(F)(F)F)cc32)CC1 [Fluphenazine, fluphenazine]
DR ratio ([2]; E. coli LN 3164): 8 | MIC ([3]; 37° C.): 32 µg/mL

CC(CN1c2ccccc2Sc2ccccc21)N(C)C (centres unmarked) [Promethazine, promethazine]
DR ratio ([2]; E. coli LN 3164): 8 | MIC ([3]; 37° C.): 64 µg/mL

penicillin
MIC [12]: 0.02 µg/mL
